Experimental data reported in patent US20240049721A1, “COMPOSITIONS AND METHODS FOR CONTROLLING FUNGI” (priority 2020, published 2024).
Where “and” joins values, the source holds several entries; their conditions need not be identical. Equal entries are not always repeated.

Key:
Fusarium graminearum = format: in vivo; details: wheat crop
Leaf blotch = experiment: Wheat trial: leaf blotch; format: in vivo; details: wheat crop
[1] = Loading (encapsulation) efficacy of essential oils into AgriCell; format: physicochemical; details: EO encapsulated into AgriCell; original EO concentration 200 mg/mL; UV-Vis at 280 nm after ethanol extraction
Description: After AgriCells are purified, the concentrated AgriCell paste or dry lyophilized powder is loaded with EOs. If dry, the AgriCells are first homogenized into a finer powder through mechanical homogenization. A stock solution from each EO is prepared in ethanol at 100 mg/mL-200 mg/mL. Lyophilized AgriCells would then be suspended in a solution with the EO solution at a ratio of 1 g of dry AgriCells to 10 mL of EO solution. Once resuspended, the ethanol is allowed to evaporate overnight, leaving behind EO encapsulated AgriCells in the process. After this overnight period, encapsulated AgriCells are removed from the beaker, and the EO-encapsulated AgriCell powder is mechanically homogenized. This encapsulated product is ready for resuspension in its appropriate medium. Loading efficacy was measured and/or calculated as percentage of EO loaded into AgriCell after extraction with ethanol 100% v/v and quantification by UV-Vis spectroscopy. Eugenol, geraniol and thymol were quantified at 280 nm.

[2] = Thermal degradation of essential oils at 40° C.; format: physicochemical
Description: (§1) AgriCell-encapsulated EOs, which were AC-Eugenol, AC-Geraniol, and AC-Thymol, (200 mg/mL of EO loaded with 200 mg/mL of AgriCell) were diluted 1:10 in deionized water (total volume 1000 μL, 14 replicates for each EO) and the solutions were left at 40° C. for a total period of 7 days. One replicate of each EO per treatment was collected daily and tested for EO content. Results were reported as concentration of EO as function of time for each stability condition.

[3] = Oxidative degradation of essential oils under UV and Vis light; format: physicochemical
Description: as §1, with “under UV radiation” for “at 40° C.”, “content by UV-Vis spectroscopy as described in Example 2.” for “content.”

[4] = Thermogravimetric analysis (TGA) 37° C. to 500° C.; format: physicochemical; details: temperature increase from 37° C. to 500° C.
Description: FIG. 9 illustrates thermogravimetric Analysis (“TGA”) between AgriCell encapsulated Thymol (“AC Thymol”) and free Thymol (“Thymol”; not encapsulated by AgriCell) along with gradual increase of temperature from 37° C. to 500° C.

Botrytis cinerea = details: against B. cinerea; reported value; cited from earlier work

CC(C)(C)C(O)(CCc1ccc(Cl)cc1)Cn1cncn1 (stereo not drawn) [Tebuconazole (Folicur), Tebuconazole]
Average FHB severity % (Fusarium graminearum): 8.3% and 1.5% | FHB Incidence % (Fusarium graminearum): 4.2% and 2.5% | Leaf blotch Incidence % (Leaf blotch): 100% | Leaf blotch severity % (Leaf blotch): 3.6% and 3.8%

C=CCc1ccc(O)c(OC)c1 [eugenol]
encapsulation efficacy [1]: 95.5% | percentage of degradation (thermal) ([2]; 7 days, 20 mg/mL): 82.6% | oxidative degradation (reduction of EO) ([3]; 7 days, 20 mg/mL): 82.6%

CC(C)=CCC/C(C)=C/CO [geraniol]
encapsulation efficacy [1]: 89.0% | percentage of degradation (thermal) ([2]; 40° C., day 7, diluted 1:10 in deionized water): 84.2% | oxidative degradation (reduction of EO) ([3]; UV radiation, after 7 days, diluted 1:10 in deionized water): 72.6%

Cc1ccc(C(C)C)c(O)c1 [thymol]
start of accelerated degradation (TGA) [4]: about 62 °C | encapsulation efficacy [1]: 91.8% | reported EC50 (Botrytis cinerea): 21.32 µg/mL | percentage of degradation (thermal) ([2]; 7 days, 20 mg/mL): 79.1% | oxidative degradation (reduction of EO) ([3]; 7 days, 20 mg/mL): 55.8%
